Patent EP4477653A1 (Perha Pharmaceuticals, priority 2023, dated 2024)

Biological target: T1, human recombinant A3AR (expressed in HEK-293 cells) (Homo sapiens, UniProt P0DMS8)
T1 construct: host or cells: HEK-293 cells
T1 sequence (P0DMS8 1-318): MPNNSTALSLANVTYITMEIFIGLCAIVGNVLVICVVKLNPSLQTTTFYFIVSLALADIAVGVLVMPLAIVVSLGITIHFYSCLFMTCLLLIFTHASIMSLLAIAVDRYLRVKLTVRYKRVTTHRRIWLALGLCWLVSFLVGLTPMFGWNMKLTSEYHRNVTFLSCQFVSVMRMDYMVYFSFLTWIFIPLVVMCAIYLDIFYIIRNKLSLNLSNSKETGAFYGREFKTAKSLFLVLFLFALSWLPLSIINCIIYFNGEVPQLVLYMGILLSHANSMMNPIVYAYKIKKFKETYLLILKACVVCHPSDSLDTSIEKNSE
Assay: Adenosine receptors antagonism assay (Eurofins), [125I]-AB-MECA radioligand competition
Format: binding
Details: [125I]-AB-MECA 0.15 nM, r.t., 120 min; IC50 from dose-response curves; read-out: Potency Class A3AR
Procedure: Assays were carried out at r.t. for 120 min. Compounds were initially tested at three concentrations (0.01, 0.1, 1 µM). […] IC50 values, which is the concentration causing a half-maximal inhibition of control specific binding, and Hill coefficients (nH) were determined by non-linear regression analysis of the competition curves generated with mean replicate values using Hill equation curve fitting. The inhibition constants (Ki) were calculated using the Cheng Prusoff equation.

`CC(C)CNc1cc(NCc2ccccn2)c2nnc(C3CC3)n2n1` [compound 194, 3-cyclopropyl-N6-isobutyl-N8-(pyridin-2-ylmethyl)-[1,2,4]triazolo[4,3-b]pyridazine-6,8-diamine] and `CCNc1cc(NCc2ccccn2)c2nnc(C3CC3)n2n1` [compound 189, 3-cyclopropyl-N6-ethyl-N8-(2-pyridylmethyl)-[1,2,4]triazolo[4,3-b]pyridazine-6,8-diamine] fall in the same range of IC50: 10 to 100 nM for the first, 10 to 100 nM for the second.

First: CCC(CC)Nc1cc(NCc2ccccn2)c2nnc(C(CC)CC)n2n1 [compound 68, N6,3-bis(1-ethylpropyl)-N8-(2-pyridylmethyl)-[1,2,4]triazolo[4,3-b]pyridazine-6,8-diamine]
Second: CCC(CC)Nc1cc(NCc2ccccn2)c2nnc(C(C)(C)C)n2n1 [compound 61, 3-tert-butyl-N6-(1-ethylpropyl)-N8-(2-pyridylmethyl)-[1,2,4]triazolo[4,3-b]pyridazine-6,8-diamine]
The IC50 of the first is lower: 1 to 10 nM for the first, 10 to 100 nM for the second.

First: CCC(CC)Nc1cc(N2Cc3ccccc3C2)c2nnc(C(C)C)n2n1 [compound 79, N-(1-ethylpropyl)-8-isoindolin-2-yl-3-isopropyl-[1,2,4]triazolo[4,3-b]pyridazin-6-amine]
Second: CCC(CC)Nc1cc(Nc2ccccn2)c2nnc(C(C)C)n2n1 [compound 46, N6-(1-ethylpropyl)-3-isopropyl-N8-(2-pyridyl)-[1,2,4]triazolo[4,3-b]pyridazine-6,8-diamine]
The IC50 of the first is higher: 100 to 1000 nM for the first, < 1 nM for the second.

`CCC(CC)CNc1cc(Nc2cccnn2)c2nnc(C(C)C)n2n1` [compound 147, N6-(2-ethylbutyl)-3-isopropyl-N8-(pyridazin-3-yl)-[1,2,4]triazolo[4,3-b]pyridazine-6,8-diamine] and `CCC(CC)Nc1cc(Nc2cccnn2)c2nnc(C(C)C)n2n1` [compound 148, 3-isopropyl-N6-(pentan-3-yl)-N8-(pyridazin-3-yl)-[1,2,4]triazolo[4,3-b]pyridazine-6,8-diamine] cannot be ordered by IC50: < 1 nM for the first, < 1 nM for the second.

First: CCC(CC)Nc1cc(NCc2ccccn2)c2nnc(-c3ccncc3)n2n1 [compound 72, N6-(1-ethylpropyl)-3-(4-pyridyl)-N8-(2-pyridylmethyl)-[1,2,4]triazolo[4,3-b]pyridazine-6,8-diamine]
Second: CCC(CC)Nc1cc(NCc2ccccn2)c2nnc(C3CCCCC3)n2n1 [compound 65, 3-cyclohexyl-N6-(1-ethylpropyl)-N8-(2-pyridylmethyl)-[1,2,4]triazolo[4,3-b]pyridazine-6,8-diamine]
The IC50 of the first is lower: 10 to 100 nM for the first, 100 to 1000 nM for the second. The first is the more potent here.

`CCC(CC)Nc1cc(NCc2cncnc2)c2nnc(C(C)C)n2n1` [compound 93, N6-(1-ethylpropyl)-3-isopropyl-N8-(pyrimidin-5-ylmethyl)-[1,2,4]triazolo[4,3-b]pyridazine-6,8-diamine] and `CCC(CC)Nc1cc(NCCc2ccccc2)c2nnc(C(C)C)n2n1` [compound 82, N6-(1-ethylpropyl)-3-isopropyl-N8-(2-phenylethyl)-[1,2,4]triazolo[4,3-b]pyridazine-6,8-diamine] fall in the same range of IC50: 1 to 10 nM for the first, 1 to 10 nM for the second.

Compared with `COCCNc1cc(NCCOC)c2nnc(C(C)C)n2n1` [compound 112, 3-isopropyl-N6,N8-bis(2-methoxyethyl)-[1,2,4]triazolo[4,3-b]pyridazine-6,8-diamine], `CCC(CC)CNc1cc(NCCc2ccccn2)c2nnc(C(C)C)n2n1` [compound 164, N6-(2-ethylbutyl)-3-isopropyl-N8-[2-(2-pyridyl)ethyl]-[1,2,4]triazolo[4,3-b]pyridazine-6,8-diamine] is lower in IC50: 100 to 1000 nM for the first, < 1 nM for the second. The second is the more potent here.

Compared with `c1ccc(CNc2cc(NC3CCCC3)nn3c(C4CC4)nnc23)nc1` [compound 199, N6-cyclopentyl-3-cyclopropyl-N8-(pyridin-2-ylmethyl)-[1,2,4]triazolo[4,3-b]pyridazine-6,8-diamine], `c1ccc(CNc2cc(N[C@@H]3CCCOC3)nn3c(C4CC4)nnc23)nc1` [compound 214, (R)-3-cyclopropyl-N8-(pyridin-2-ylmethyl)-N6-(tetrahydro-2H-pyran-3-yl)-[1,2,4]triazolo[4,3-b]pyridazine-6,8-diamine] is higher in IC50: 1 to 10 nM for the first, 100 to 1000 nM for the second. The first is the more potent here.

First: CCC(CC)Nc1cc(Nc2ncccn2)c2nnc(C3CC3)n2n1 [compound 179, 3-cyclopropyl-N6-(pentan-3-yl)-N8-(pyrimidin-2-yl)-[1,2,4]triazolo[4,3-b]pyridazine-6,8-diamine]
Second: CCC(CC)Nc1cc(Nc2ccncn2)c2nnc(C3CC3)n2n1 [compound 177, 3-cyclopropyl-N6-(pentan-3-yl)-N8-(pyrimidin-4-yl)-[1,2,4]triazolo[4,3-b]pyridazine-6,8-diamine]
The IC50 of the first is higher: 10 to 100 nM for the first, < 1 nM for the second. The second is the more potent here.

First: CC(C)c1nnc2c(NCc3ccccc3)cc(N[C@H]3CCCOC3)nn12 [compound 22, N8-benzyl-3-isopropyl-N6-[(3S)-tetrahydropyran-3-yl]-[1,2,4]triazolo[4,3-b]pyridazine-6,8-diamine]
Second: CNc1cc(NCc2ccc(Br)cc2)c2nnc(C(C)C)n2n1 [compound 116, N8-[(4-bromophenyl)methyl]-3-isopropyl-N6-methyl-[1,2,4]triazolo[4,3-b]pyridazine-6,8-diamine]
The IC50 of the first is lower: 10 to 100 nM for the first, 100 to 1000 nM for the second.

First: CCC(CC)Nc1cc(Nc2cccnc2OC)c2nnc(C3CC3)n2n1 [compound 184, 3-cyclopropyl-N8-(2-methoxypyridin-3-yl)-N6-(pentan-3-yl)-[1,2,4]triazolo[4,3-b]pyridazine-6,8-diamine]
Second: CCC(CC)Nc1cc(Nc2cccnc2OC)c2nnc(C(C)C)n2n1 [compound 158, 3-isopropyl-N8-(2-methoxypyridin-3-yl)-N6-(pentan-3-yl)-[1,2,4]triazolo[4,3-b]pyridazine-6,8-diamine]
The IC50 of the first is higher: 10 to 100 nM for the first, < 1 nM for the second.

`CCC(CC)Nc1cc(Nc2ncccc2OC)c2nnc(C(C)C)n2n1` [compound 157, 3-isopropyl-N8-(3-methoxypyridin-2-yl)-N6-(pentan-3-yl)-[1,2,4]triazolo[4,3-b]pyridazine-6,8-diamine] and `CC[C@@H](CO)Nc1cc(NCc2ccc(Br)cc2)c2nnc(C(C)C)n2n1` [compound 101, (2S)-2-[[8-[(4-bromophenyl)methylamino]-3-isopropyl-[1,2,4]triazolo[4,3-b]pyridazin-6-yl]amino]butan-1-o1] fall in the same range of IC50: 10 to 100 nM for the first, 10 to 100 nM for the second.

First: CC[C@@H](CO)Nc1cc(NCc2ccc(-c3ccccn3)cc2)c2nnc(C(C)C)n2n1 [compound 105, (2S)-2-[[3-isopropyl-8-[[4-(2-pyridyl)phenyl]methylamino]-[1,2,4]triazolo[4,3-b]pyridazin-6-yl]amino]butan-1-ol]
Second: CC(C)c1nnc2c(NCc3ccccn3)cc(NC(C)(C)C)nn12 [compound 52, N6-tert-butyl-3-isopropyl-N8-(2-pyridylmethyl)-[1,2,4]triazolo[4,3-b]pyridazine-6,8-diamine]
The IC50 of the first is higher: 10 to 100 nM for the first, 1 to 10 nM for the second.

`c1ccc(CNc2cc(NCc3ccccn3)c3nnc(C4CC4)n3n2)cc1` [compound 186, N6-benzyl-3-cyclopropyl-N8-(pyridin-2-ylmethyl)-[1,2,4]triazolo[4,3-b]pyridazine-6,8-diamine] was tested, and the IC50 was 1 to 10 nM.

Same assay, conditions: read-out: Potency Class A3AR; [125I]-AB-MECA 0.15 nM, r.t., 120 min; IC50 from dose-response curves

First: CC[C@H](CO)Nc1cc(NCc2ccccn2)c2nnc(C(C)C)n2n1 [compound 169]
Second: CCC(CC)Nc1cc(NC(=O)Cc2cccnc2)c2nnc(C(C)C)n2n1 [compound 168, N-[6-(1-ethylpropylamino)-3-isopropyl-[1.2.4]triazolo[4,3-b]pyridazin-8-yl]-2-(3-pyridyl)acetamide]
The IC50 of the first is higher: 10 to 100 nM for the first, < 1 nM for the second.
